Test results published in publication PMC11286589, “Population pharmacokinetics and exposure–response analyses of SAF-189s in Chinese patients with ALK+/ROS1+ non-small cell lung cancer” (Frontiers in Pharmacology, 2024).
Several values for one entry are separate records, joined by “and”; a condition that tells them apart may be missing. Equal values may be shown once.

Assay: Population pharmacokinetic (PopPK) model of SAF-189s plasma concentrations (NONMEM)
Format: in vivo, human
Procedure: The population PK analysis included data from one phase I study of SAF-189s conducted with healthy subjects (study STL31147; n = 24) and one phase I/II study conducted with Chinese patients having ALK+/ROS1+ advanced NSCLC (study SAF001; n = 299). STL31147 was a single-center, randomized, open-label, two-period (fed and fasting), and two-sequence crossover study on healthy Chinese adults. The volunteers received SAF-189s at a dose of 160 mg orally once in each period, with a washout period of 14 days. Blood samples (3 mL) were collected after each SAF-189s administration at 0 (predose), 1, 2, 3, 4, 6, 8, 10, 12, 24, 48, 72, 120, and 168 h post dosing. SAF001 was a multicenter, open-label, and single-arm phase I/II study to evaluate the safety, tolerability, pharmacokinetics, and antitumor activity of SAF-189s in patients with advanced ALK+ NSCLC (phase I) and ALK+/ROS1+ NSCLC (phase II). In the dose escalation portion, the study treatment included a single-agent 3-day PK run-in period and a continuous treatment period. The dosing regimens were 20, 40, 80, 120, 160, and 210 mg QD for 21 days in 21-day cycles during the continuous treatment period. In phase II, the patients received 80, 120, 160, and 210 mg of SAF-189s (phase IIa) or 160 mg (phase IIb) QD over 21-day cycles.
All studies were conducted in accordance with the Good Clinical Practice guidelines and Declaration of Helsinki. The protocols were approved by the independent ethics committee of each investigation site, and all subjects provided informed consent. The tumor responses were assessed by the IRC based on the Response Evaluation Criteria in Solid Tumors (RECIST) 1.1 conditions. The exposure–efficacy analyses of SAF-189s were conducted based on data from patients in the SAF001 study to explore the relationships between systemic exposure and efficacy endpoints, including the ORR, PFS, and duration of response (DOR). The exposure–safety analyses of SAF-189s were conducted based on data from patients in the SAF001 study to explore the relationships between the systemic exposure and safety endpoints, including the adverse events (AEs) of interest. In these studies, the SAF-189s plasma concentrations were analyzed using validated liquid chromatography tandem mass spectrometry within the assay range of 0.5–150 ng mL^–1.
Dataset preparation and exploratory graphical analyses were performed using R (version 4.2.0) and SAS® (version 9.4, Institute Inc., Cary, NC, United States). The PK data of SAF-189s were pooled and analyzed using a non-linear mixed-effects model. The PopPK analysis was conducted using NONMEM® software (version 7.3, ICON, Hanover, MD, United States) with first-order conditional estimations with interactions (FOCE-I). Following graphical exploratory analysis, one- and two-compartment models were evaluated; several absorption models were then tested, including first-order, zero-order, sequential zero- and first-order, and parallel first-order models with and without a lag absorption time; based on the characteristics of the elimination phase of the concentration–time profiles of SAF-189s, the linear, non-linear, and time-dependent elimination models ([Lau et al., 2019]; [Kratochwil et al., 2021]) were investigated. Interindividual variance (IIV) was then described as a log-normal distribution, and the covariance between the IIV parameters was assessed. Residual variability was assessed by comparing the proportional, additive, and combined error models. Owing to the low proportion (<1%) of post-administration samples with concentrations below the quantification limit (BQL) of the assay, the BQL data were excluded from the PopPK model development. Model selection was based on the objective function value (OFV), goodness-of-fit (GOF) plot, and robustness of parameter estimates. The ETA shrinkage was also taken into consideration when evaluating the models.
The covariates were prespecified based on their physiological and clinical relevance. […]

[1] = 5th percentile age (25 years) vs median age (53 years)
[2] = 95th percentile age (71 years) vs median age (53 years)
[3] = ALKPOT 2 or 3 or 4 vs reference 1
[4] = ALKPOT 6 (healthy) vs reference 1
[5] = age 25 year vs reference 53 year, Figure 4
[6] = age 71 year vs reference 53 year, Figure 4

Cc1cc(Nc2ncc(Cl)c(Nc3ccccc3S(=O)(=O)C(C)C)n2)c2c(c1C1CCN(C)CC1)C[C@@H](C)O2 [SAF-189s]
AUCss geometric mean (160 mg QD dose): 2,374 ng∙h mL^–1
AUC decrease [1]: 21%
CL/F increase [1]: 27%
AUC increase [2]: 10%
CL/F decrease [2]: 8.8%
AUCss(ug*h/L) Ratio [3]: 1.18
V/F(L) Ratio [3]: 0.734
AUCss(ug*h/L) Ratio (ALKPOT 5 (ROS1) vs reference 1): 1.06
V/F(L) Ratio (ALKPOT 5 (ROS1) vs reference 1): 0.917
AUCss(ug*h/L) Ratio [4]: 0.979
V/F(L) Ratio [4]: 0.784
AUCss higher (ALKPOT = 2, 3, 4 compared to ALKPOT = 1): 18%
V/F reduction (ALKPOT = 2, 3, 4 relative to ALKPOT = 1): 26.6%
AUCss higher (ALKPOT = 5 compared to ALKPOT = 1): 6%
V/F reduction (ALKPOT = 5 relative to ALKPOT = 1): 8.3%
V/F reduction (ALKPOT = 6 (healthy subjects) relative to ALKPOT = 1): 21.6%
AUCss lower (ALKPOT = 6 compared to ALKPOT = 1): 2.1%
effect of prior anticancer therapy on AUCss (ALKPOT covariate): less than 20%
half-life (after the first dose, typical subjects (median age 53 years, ALK+ without previous ALK inhibitor treatment)): 34.6 h
AUCss(ug*h/L) Ratio [5]: 0.79
CL/F(L/h) Ratio [5]: 1.27
AUCss(ug*h/L) Ratio [6]: 1.1
CL/F(L/h) Ratio [6]: 0.912
AUCss median value (exposure–safety analysis, all patients): 2,233 ng∙h mL^–1
ALAG1 (tlag) typical value (final PopPK model estimate): 0.483 (±0.0306) h and 0.483 h
CL1/F typical value (final PopPK model estimate): 64 (±1.51) L h^–1 and 64 L h^–1
CL2/F typical value (final PopPK model estimate): 40.3 (±6.89) L h^–1 and 40.3 L h^–1
KA typical value (final PopPK model estimate): 0.501 (±0.0444) h^−1
V/F typical value (final PopPK model estimate): 5,210(±339) L and 5,210 L
KA typical value (final PopPK model estimate, Table 2): 0.501 L h^–1
Interindividual variability ω^2 ALAG1 (final model estimate): 0.12
Interindividual variability ω^2 CL (final model estimate): 0.138
Interindividual variability ω^2 KA (final model estimate): 0.279
Interindividual variability ω^2 V (final model estimate): 0.125
ALKPOT = 6 on V/F (healthy subjects, final model estimate): 0.784
ALAG1 bootstrap estimate (non-parametric bootstrap): 0.491 h
ALKPOT = 2,3,4 on V/F bootstrap estimate (non-parametric bootstrap): 0.724
ALKPOT = 5 on V/F bootstrap estimate (non-parametric bootstrap): 0.905
ALKPOT = 6 on V/F bootstrap estimate (non-parametric bootstrap): 0.782
CL1/F bootstrap estimate (non-parametric bootstrap): 64 L h^–1
CL2/F bootstrap estimate (non-parametric bootstrap): 40.5 L h^–1
Interindividual variability ω^2 ALAG1 bootstrap estimate (non-parametric bootstrap): 0.106
Interindividual variability ω^2 CL bootstrap estimate (non-parametric bootstrap): 0.138
Interindividual variability ω^2 KA bootstrap estimate (non-parametric bootstrap): 0.276
Interindividual variability ω^2 V bootstrap estimate (non-parametric bootstrap): 0.121
KA bootstrap estimate (non-parametric bootstrap): 0.504 L h^–1
Kout bootstrap estimate (non-parametric bootstrap): 1.35 day⁻¹
V/F bootstrap estimate (non-parametric bootstrap): 5,199 L
ALKPOT = 5 on V/F (others (ROS1+ patients or unknown), final model estimate): 0.917
ALKPOT = 2,3,4 on V/F (patients with previous ALK inhibitor treatment, final model estimate): 0.734
Cmin,ss (quartile 1, estimated using the most prevalent dose): 18–60.7 ng mL^–1
Cmin,ss (quartile 2, estimated using the most prevalent dose): 60.7–79 ng mL^–1
Cmin,ss (quartile 3, estimated using the most prevalent dose): 79–108 ng mL^–1
Cmin,ss (quartile 4, estimated using the most prevalent dose): 108–182 ng mL^–1
half-life (steady state after multiple administrations, typical subjects): approximately 56.4 h
Kout (time-varying inhibition rate constant): 1.35 (±0.421) day^−1
Kout typical value (time-varying inhibition rate constant, Table 2): 1.35 day⁻¹
